Literature values in patent US20250288585A1, “SYNERGISTIC COMPOSITIONS FOR ENHANCED HAIR GROWTH AND METHODS FOR TREATING HAIR LOSS” (The Johns Hopkins University, priority 2024, published 2025).

What was measured:
[1] = liposomal hydrogel system
[2] = tested on: follicular sulfotransferase; conditions: topical 0.1% tretinoin, plucked hairs, in vitro
[3] = tested on: subjects with androgenetic alopecia; conditions: topical tretinoin alone

## Nc1cc(N2CCCCC2)nc(N)[n+]1[O-] [minoxidil]
[1]
  permeation through skin ex vivo: enhanced the permeation

## CC1=C(/C=C/C(C)=C/C=C/C(C)=C/C(=O)O)C(C)(C)CCC1 [tretinoin, all-trans-retinoic acid]
[2]
  effect on expression of follicular sulfotransferase: influences the expression of follicular sulfotransferase
[3]
  subjects with some hair regrowth: approximately 58%
[1]
  permeation through skin ex vivo: retained on the skin
